Data on 6 compounds can be found in patent US8097643B2, “Indol-4 sulfonamide derivatives, their preparation and their use 5-ht-6 as modulators” (Laboratorios del Dr. Esteve S. A., priority 2003, dated 2012).

In series [1] the target is T1, recombinant human 5HT6 receptor (Homo sapiens, UniProt P50406).
T1 construct: purchased Receptor Biology; host or cells: HEK-293 cell membranes
The experiment in a line: Binding to the 5HT6 serotonin receptor ([3H]-LSD radioligand). The conditions noted are these: 10^−6 M compound; [3H]-LSD 2.7 nM; HEK-293 cell membranes. Here is the method:
Binding to the 5Ht6 Serotonin Receptor
HEK-293 cell membranes expressing the recombinant human 5HT6 receptor were supplied by Receptor Biology. […] Incubation ends by quick filtration in a Harvester Brandel Cell through fiberglass filters of the Schleicher & Schuell GF 3362 trademark, pretreated with a 0.5% polyethyleneimine solution. […] The vials are left to equilibrate for several hours prior to their counting in a 1414 Wallac Winspectral scintillation counter. […] The assays are carried out in triplicate. The inhibition constants (Ki, nM) are calculated by non-linear regression analysis using the EBDA/LIGAND program [Munson and Rodbard, Analytical Biochemistry, 1980, 107, 220].
Binding of the new compounds of general formula (Ia and Ib and Ic) to the 5-HT6 receptor was determined as previously described.

T1 sequence (P50406 whole entry): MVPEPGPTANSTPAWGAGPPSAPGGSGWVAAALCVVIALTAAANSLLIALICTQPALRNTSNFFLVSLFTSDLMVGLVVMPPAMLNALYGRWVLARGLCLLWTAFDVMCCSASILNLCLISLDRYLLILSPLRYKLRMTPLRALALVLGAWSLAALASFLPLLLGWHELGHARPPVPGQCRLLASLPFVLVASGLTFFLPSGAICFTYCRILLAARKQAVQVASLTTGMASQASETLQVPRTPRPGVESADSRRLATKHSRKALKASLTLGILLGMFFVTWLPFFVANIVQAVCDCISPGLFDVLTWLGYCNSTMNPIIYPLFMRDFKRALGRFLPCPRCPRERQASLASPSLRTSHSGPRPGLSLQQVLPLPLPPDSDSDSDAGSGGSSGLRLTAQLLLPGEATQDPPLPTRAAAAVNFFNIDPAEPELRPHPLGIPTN

`CN(C)CCn1ccc2c(NS(=O)(=O)c3ccc(-c4ccccc4)cc3)cccc21` [Example 4, N-[1-(2-dimethylaminoethyl)-1H-indole-4-yl]-4phenylbenzenesulfonamide] had a melting point of 137 to 140 °C. In turn, `CN(C)CCn1ccc2c(NS(=O)(=O)c3cc(Cl)cc(Cl)c3)cccc21` [Example 7, N-[1-(2-dimethylaminoethyl)-1H-indole-4-yl]-3,5-dichlorobenzenesulfonamide] yielded a melting point of 113 to 118 °C. In addition, the inhibition at 1 µM in series [1] was 72.3%. `Cc1c(S(=O)(=O)Nc2cccc3c2ccn3CCN(C)C)sc2ccc(Cl)cc12` [Example 1, N-[1-(2-dimethylaminoethyl)-1H-indole-4-yl]-5-chloro-3-methyl-benzo[b]thiophene-2-sulfonamide]: the melting point fell in the range of 78 to 80 °C. On the same count and under the same terms, for `CN(C)CCn1ccc2c(NS(=O)(=O)CCc3cccc4ccccc34)cccc21` [Example 5, N-[1-(2-dimethylaminoethyl)-1H-indole-4-yl]-2-(naphthalene-1-yl)-ethanesulfonamide] the value was 47 to 54 °C. Consider “N-[1-(2-dimethylaminoethyl)-1H-indole-4-yl]-naphtalene-1-sulfonamide [Example 3]”, for which the “% Inhibition 10^−6 M” value in series [1] is 94.8%. On the same count and under the same terms, for “N-[1-(2-dimethylaminoethyl)-1H-indole-4-yl]-naphtalene-2-sulfonamide [Example 2]” the value was 104.3%.
